Molecules are shown by their SMILES.

In assay [1] the target is Proto-oncogene tyrosine-protein kinase ROS (Homo sapiens) (UniProt P08922). Kind of assay: Selectivity interaction (ProQinase) EUB0000171b ROS1.
For assay [2], the target named is Serine/threonine-protein kinase OSR1 (Homo sapiens) (UniProt O95747). The assay is described as follows: Selectivity interaction (KinomeScan (DiscoverX)) EUB0000092b OXSR1. As to conditions: at 10 µM.
For assay [3], the target named is Bromodomain and WD repeat-containing protein 1 (Homo sapiens) (UniProt Q9NSI6). The assay is described as follows: Selectivity interaction (Bromodomain panel (DSF asssay)) EUB0000270b BRWD1.
Assay [4] has as its target T1, Mitogen-activated protein kinase kinase kinase kinase 3 (Homo sapiens) (UniProt Q8IVH8).
T1 sequence (whole entry): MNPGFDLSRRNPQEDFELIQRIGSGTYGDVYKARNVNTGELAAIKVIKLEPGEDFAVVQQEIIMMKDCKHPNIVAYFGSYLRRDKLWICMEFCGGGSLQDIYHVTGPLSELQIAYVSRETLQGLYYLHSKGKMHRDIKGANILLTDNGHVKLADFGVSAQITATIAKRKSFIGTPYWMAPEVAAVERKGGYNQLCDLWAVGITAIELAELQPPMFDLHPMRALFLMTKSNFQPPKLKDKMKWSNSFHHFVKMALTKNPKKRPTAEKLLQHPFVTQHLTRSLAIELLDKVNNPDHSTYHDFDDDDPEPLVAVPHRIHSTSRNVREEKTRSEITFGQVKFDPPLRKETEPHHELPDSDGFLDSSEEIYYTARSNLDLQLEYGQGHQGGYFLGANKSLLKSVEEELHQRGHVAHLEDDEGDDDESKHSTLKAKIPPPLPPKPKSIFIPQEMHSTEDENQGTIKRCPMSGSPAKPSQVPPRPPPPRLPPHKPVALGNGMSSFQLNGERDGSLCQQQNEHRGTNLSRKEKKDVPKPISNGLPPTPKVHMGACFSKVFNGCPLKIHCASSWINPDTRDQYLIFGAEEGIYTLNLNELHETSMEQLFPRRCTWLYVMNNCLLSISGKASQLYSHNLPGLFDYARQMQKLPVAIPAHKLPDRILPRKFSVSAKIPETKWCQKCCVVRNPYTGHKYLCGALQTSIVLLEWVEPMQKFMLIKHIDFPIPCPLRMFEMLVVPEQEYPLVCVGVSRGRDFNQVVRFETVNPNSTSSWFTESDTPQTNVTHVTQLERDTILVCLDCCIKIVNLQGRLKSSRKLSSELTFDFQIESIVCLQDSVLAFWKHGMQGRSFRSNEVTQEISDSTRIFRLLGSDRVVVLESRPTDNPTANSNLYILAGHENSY
Kind of assay: Selectivity interaction (LanthaScreen Eu Kinase Binding Assay) EUB0001632a MAP4K3. As to conditions: at 10 µM. A general note: Time-resolved FRET reads energy transfer from a long-lived donor to a nearby acceptor.

Assay [5] deals with T2, Phosphorylase b kinase gamma catalytic chain, liver/testis isoform (Homo sapiens) (UniProt P15735).
T2 sequence (whole entry): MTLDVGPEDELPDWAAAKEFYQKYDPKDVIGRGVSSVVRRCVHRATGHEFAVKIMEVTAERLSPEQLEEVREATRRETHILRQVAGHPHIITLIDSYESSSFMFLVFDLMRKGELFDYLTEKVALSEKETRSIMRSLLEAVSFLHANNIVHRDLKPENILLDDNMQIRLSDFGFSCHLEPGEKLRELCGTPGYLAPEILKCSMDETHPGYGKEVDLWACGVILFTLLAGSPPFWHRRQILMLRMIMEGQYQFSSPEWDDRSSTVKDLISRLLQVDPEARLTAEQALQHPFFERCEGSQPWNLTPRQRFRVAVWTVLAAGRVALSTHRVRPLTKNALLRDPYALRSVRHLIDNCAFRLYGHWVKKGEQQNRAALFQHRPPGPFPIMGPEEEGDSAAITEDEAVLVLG
The assay is described as follows: Selectivity interaction (KinomeScan (DiscoverX)) EUB0000607a PHKG2. As to conditions: at 10 µM.

The target of assay [6] is T3, Testis-specific serine/threonine-protein kinase 2 (Homo sapiens) (UniProt Q96PF2).
T3 sequence (whole entry): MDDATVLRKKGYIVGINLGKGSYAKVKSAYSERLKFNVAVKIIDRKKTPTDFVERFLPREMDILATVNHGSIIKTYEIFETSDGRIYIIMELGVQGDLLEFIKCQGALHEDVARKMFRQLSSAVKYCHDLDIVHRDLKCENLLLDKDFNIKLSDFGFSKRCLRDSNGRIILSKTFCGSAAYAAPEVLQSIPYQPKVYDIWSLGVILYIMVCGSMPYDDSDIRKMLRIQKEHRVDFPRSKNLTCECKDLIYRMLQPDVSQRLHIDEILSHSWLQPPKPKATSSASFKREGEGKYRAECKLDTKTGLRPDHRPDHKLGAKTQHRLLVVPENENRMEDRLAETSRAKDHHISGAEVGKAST
The assay is described as follows: Selectivity interaction (SelectScreen profiling (Invitrogen)) EUB0000607a TSSK2. As to conditions: at 2 µM.

In assay [7] the target is T4, Phosphatidylinositol 5-phosphate 4-kinase type-2 gamma (Homo sapiens) (UniProt Q8TBX8).
T4 sequence (whole entry): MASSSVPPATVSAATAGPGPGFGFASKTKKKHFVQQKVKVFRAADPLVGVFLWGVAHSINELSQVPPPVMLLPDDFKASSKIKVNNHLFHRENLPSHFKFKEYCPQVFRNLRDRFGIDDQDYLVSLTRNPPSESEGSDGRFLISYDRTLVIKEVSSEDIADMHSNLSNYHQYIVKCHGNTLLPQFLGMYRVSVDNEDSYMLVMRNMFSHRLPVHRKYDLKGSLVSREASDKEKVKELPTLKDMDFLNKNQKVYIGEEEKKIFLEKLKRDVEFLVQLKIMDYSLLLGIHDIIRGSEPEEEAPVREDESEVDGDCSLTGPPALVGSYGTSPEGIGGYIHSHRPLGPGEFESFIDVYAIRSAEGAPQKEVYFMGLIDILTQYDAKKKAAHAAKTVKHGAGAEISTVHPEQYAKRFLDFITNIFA
The assay is described as follows: Selectivity interaction (ActivX KiNativ screen (kinase selectivity in THP-1 cell lysates)) EUB0000639a PIP4K2C. The assay is classed as subcellular. As to conditions: lysate, at 0.2 µM.

For assay [8], the target named is Bone morphogenetic protein receptor type-1A (Homo sapiens, UniProt P36894). Kind of assay: Selectivity interaction (KinomeScan (DiscoverX)) EUB0001619a BMPR1A. As to conditions: at 1 µM.
In assay [9] the target is Cyclin-dependent kinase 11B (Homo sapiens) (UniProt P21127). The assay is described as follows: Selectivity interaction (KinomeScan (DiscoverX)) EUB0000618a CDK11B. As to conditions: at 10 µM.
Sequence of Cyclin-dependent kinase 11B (Homo sapiens) (P21127 whole entry): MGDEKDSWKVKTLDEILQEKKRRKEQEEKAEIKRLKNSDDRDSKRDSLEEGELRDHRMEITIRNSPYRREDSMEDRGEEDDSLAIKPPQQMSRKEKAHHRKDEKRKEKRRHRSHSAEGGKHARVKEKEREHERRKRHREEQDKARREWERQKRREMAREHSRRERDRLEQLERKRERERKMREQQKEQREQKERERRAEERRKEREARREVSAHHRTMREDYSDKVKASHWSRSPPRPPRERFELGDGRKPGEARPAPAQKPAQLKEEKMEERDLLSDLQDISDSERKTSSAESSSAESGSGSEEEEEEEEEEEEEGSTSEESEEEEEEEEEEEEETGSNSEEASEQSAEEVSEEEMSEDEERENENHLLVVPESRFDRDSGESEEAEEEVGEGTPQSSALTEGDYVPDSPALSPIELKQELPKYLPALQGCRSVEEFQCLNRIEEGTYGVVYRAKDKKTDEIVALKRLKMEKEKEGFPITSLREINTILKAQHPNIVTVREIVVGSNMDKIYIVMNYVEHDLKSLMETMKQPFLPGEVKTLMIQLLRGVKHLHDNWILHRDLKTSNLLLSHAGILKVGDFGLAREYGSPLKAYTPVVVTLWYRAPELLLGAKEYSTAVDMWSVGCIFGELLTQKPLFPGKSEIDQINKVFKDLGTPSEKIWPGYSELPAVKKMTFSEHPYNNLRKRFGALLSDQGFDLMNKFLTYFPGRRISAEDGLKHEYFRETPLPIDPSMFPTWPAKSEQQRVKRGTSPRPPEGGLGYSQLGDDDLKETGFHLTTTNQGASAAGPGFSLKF

Sequence of Proto-oncogene tyrosine-protein kinase ROS (Homo sapiens) (P08922 whole entry): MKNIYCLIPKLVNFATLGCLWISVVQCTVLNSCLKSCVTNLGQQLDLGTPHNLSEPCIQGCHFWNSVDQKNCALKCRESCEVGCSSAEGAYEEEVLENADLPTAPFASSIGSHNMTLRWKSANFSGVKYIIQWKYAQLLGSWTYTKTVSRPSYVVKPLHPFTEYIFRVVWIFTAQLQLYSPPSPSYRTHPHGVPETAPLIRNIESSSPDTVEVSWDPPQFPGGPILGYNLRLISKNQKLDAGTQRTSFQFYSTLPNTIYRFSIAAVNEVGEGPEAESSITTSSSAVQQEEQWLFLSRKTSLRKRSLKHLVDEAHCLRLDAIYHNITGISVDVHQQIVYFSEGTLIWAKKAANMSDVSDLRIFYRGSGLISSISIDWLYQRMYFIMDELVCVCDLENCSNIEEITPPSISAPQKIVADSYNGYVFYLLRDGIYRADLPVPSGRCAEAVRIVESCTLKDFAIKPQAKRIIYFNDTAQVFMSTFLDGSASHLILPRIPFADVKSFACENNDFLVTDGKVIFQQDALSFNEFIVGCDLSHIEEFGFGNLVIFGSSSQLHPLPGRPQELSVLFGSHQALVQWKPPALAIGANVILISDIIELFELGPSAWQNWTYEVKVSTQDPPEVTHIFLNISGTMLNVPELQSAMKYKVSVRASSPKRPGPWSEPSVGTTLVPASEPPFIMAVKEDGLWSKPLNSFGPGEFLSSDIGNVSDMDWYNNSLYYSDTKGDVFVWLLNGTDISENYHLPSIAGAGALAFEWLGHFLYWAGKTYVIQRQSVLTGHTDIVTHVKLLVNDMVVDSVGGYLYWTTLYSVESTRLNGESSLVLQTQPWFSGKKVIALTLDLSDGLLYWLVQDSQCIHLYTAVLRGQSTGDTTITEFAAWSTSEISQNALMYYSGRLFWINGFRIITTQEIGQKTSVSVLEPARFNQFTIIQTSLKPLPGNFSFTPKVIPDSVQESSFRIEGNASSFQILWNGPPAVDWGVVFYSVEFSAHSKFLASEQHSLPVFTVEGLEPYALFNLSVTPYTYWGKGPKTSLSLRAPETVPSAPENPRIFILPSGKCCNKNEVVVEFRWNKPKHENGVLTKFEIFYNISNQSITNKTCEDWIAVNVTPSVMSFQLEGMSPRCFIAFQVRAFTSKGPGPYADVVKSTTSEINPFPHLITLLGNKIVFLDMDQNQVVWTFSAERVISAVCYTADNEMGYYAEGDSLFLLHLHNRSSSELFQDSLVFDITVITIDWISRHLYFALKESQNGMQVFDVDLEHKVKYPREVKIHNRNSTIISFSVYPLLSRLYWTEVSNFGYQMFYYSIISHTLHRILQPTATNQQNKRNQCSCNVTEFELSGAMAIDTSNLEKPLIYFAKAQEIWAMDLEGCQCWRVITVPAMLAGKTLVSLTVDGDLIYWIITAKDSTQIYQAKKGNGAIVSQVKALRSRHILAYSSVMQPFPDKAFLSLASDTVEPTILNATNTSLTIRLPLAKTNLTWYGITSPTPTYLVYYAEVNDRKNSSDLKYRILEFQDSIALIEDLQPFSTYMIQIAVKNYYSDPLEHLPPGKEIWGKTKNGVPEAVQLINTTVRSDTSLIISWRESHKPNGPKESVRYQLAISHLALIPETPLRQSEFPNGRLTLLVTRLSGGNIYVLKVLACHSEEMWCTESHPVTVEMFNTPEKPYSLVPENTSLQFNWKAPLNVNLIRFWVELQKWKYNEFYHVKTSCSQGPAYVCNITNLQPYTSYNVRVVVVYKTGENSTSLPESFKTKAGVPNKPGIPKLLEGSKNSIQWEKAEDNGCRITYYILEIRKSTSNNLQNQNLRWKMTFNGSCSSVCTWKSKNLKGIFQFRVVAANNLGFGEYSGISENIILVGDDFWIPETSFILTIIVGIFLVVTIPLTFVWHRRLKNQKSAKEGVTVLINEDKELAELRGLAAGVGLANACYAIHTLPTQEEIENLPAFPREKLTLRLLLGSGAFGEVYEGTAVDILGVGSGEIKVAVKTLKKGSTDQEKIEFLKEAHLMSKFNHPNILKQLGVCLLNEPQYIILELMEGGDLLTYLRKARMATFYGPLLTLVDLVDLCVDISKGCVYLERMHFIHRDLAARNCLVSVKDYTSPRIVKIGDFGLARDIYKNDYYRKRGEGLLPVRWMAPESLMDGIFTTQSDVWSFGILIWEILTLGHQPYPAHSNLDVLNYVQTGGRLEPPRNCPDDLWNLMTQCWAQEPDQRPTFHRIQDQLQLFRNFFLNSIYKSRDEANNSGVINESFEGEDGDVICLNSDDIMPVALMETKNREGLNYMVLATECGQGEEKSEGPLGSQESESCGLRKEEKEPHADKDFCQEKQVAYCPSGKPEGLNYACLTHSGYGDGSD
Sequence of Serine/threonine-protein kinase OSR1 (Homo sapiens) (O95747 2-527 limits assumed): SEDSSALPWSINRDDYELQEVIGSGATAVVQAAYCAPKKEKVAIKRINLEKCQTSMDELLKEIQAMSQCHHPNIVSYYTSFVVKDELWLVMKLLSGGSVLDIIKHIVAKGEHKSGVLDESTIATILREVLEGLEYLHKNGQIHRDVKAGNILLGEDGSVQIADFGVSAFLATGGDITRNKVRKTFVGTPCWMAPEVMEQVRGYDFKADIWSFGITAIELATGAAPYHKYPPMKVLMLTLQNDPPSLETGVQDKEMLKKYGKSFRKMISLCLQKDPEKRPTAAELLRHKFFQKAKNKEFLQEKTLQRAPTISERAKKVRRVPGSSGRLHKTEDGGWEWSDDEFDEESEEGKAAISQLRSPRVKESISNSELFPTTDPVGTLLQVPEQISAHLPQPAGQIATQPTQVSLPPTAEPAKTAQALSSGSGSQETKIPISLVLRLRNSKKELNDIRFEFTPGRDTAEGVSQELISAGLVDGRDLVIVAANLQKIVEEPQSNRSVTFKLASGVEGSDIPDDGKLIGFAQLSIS
Sequence of Bone morphogenetic protein receptor type-1A (P36894 whole entry): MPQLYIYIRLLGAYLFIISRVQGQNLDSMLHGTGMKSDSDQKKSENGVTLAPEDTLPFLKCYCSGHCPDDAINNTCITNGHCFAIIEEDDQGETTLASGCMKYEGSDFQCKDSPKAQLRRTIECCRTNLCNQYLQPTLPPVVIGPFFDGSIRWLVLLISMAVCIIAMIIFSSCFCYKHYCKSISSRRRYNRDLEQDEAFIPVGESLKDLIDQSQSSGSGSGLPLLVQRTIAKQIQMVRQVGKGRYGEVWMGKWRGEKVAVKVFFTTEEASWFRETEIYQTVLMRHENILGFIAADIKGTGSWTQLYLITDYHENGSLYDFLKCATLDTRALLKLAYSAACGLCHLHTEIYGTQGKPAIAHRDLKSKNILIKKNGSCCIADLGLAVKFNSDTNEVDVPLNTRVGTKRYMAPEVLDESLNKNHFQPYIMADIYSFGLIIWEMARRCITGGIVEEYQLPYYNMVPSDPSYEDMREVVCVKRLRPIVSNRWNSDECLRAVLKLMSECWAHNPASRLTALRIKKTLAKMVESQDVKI

For the molecule `C=CC(=O)Nc1cccc(C(=O)Nc2ccc(Nc3cc(-c4[nH]c(SC)nc4C)ccn3)cc2)c1`, the % of control in assay [1] (at 1 µM) was determined as 87%; in assay [1] (at 5 µM), 74%.
`CCC(=O)N1CCN(c2ccc(-n3c(=O)ccc4cnc5ccc(-c6cnc7ccccc7c6)cc5c43)cc2C(F)(F)F)CC1`: the % of control in assay [2] worked out at 100%.
`Cc1cc(CN)cc(C)c1-c1ncn(C)c1-c1cncn1C`: in assay [3], the dTM was -1.1 K.
`Cn1cc(-n2cnc3c(NCc4nc5cc(Cl)c(Cl)cc5[nH]4)nc(N4CCOCC4)nc32)cn1`: the % of inhibition in [4] was -14.8%.
As to `CNC(=O)Nc1ccc(-c2nc(N3CC4CCC(C3)O4)c3cnn(C4CCC5(CC4)OCCO5)c3n2)cc1`, the % of control in assay [5] stood at 96%. Moreover, in [6], the % of inhibition worked out at 2%.
With `CC[C@@H]1[C@H](F)C(=O)N[C@@H]1COc1nccc2cc(C(N)=O)c(OC)cc12` [ZIMLOVISERTIB], the % of inhibition in [7] was determined as 51.3%.
In assay [8], `N#Cc1cccc(-c2c[nH]c3ncnc(N4CCOCC4)c23)c1` yielded a % of control of 98%.
In assay [9], `O[C@H]1CC[C@H](Nc2ncc3nc(Nc4c(F)cc(F)cc4F)n([C@H]4CCOC4)c3n2)CC1` displayed a % of control of 91%.

Values taken from ChEMBL document CHEMBL5465560, “Selectivity Literature for EUbOPEN Chemogenomic Library” (2024).
